“Also recorded” adds a separate entry of the source.

Holding throughout (type): in vivo, mouse
The subject of experiment [1] is mdx mice. Description: Survival and proliferation of grafted EGFP satellite cells in mdx mice, EGFP transgene real time qPCR. From the text:
Alternatively, it might be possibly that the host muscles have a diminished density of satellite cells, thus, the grafted cells would have no competition for the regenerating muscle fibers or instead the transplanted cells presents a better proliferation performance in the andrographolide treated mice muscles. The first possibility seems to be plausible considering the fibroblast migration data (FIG. 5), while the second hypothesis was excluded since no changes in the number of satellite cells present on isolated EDL myofibers obtained from the same transplanted mice in FIG. 5A were observed, with a mean of 12.5 satellite cells per EDL myofiber, as shown in the FIG. 5B. To test the last possibility, whether grafted cells have improved proliferation rate or survival, we purified satellite cells from the EGFP-transgenic C57BL/6 mice that constitutively expressed the EGFP transgene under the control of the chicken b-actin gene (C57BL/6-Tg(ACTbEGFP)10sba; Act-EGFP). […] The EGFP transgene present in the grafted muscles was detected by real time qPCR in parallel with the mouse b-actin as a housekeeping gene. Since every grafted cell carries only one copy of the EGFP gene (the homozygous EGFP mice die within 2 weeks after birth) the EGFP gene detection constitutes a specific, rapid, and objective quantitation of the grafted cells.

Experiment [2] relates to mdx mice. The experiment in a line: Migration of DiI-labeled tendon fibroblasts injected into tibialis anterior of mdx mice. The conditions noted are these: mdx mice pre-treated 1 mg/Kg, tendon fibroblasts injected one week after treatment, analysed after one month, vs vehicle. The protocol: FIG. 7. Andrographolide increases cell migration through fibrosis inhibition. A) Migration of DiI-labeled tendon fibroblast cells after injection into the tibialis anterior of 7-month-old mdx mice (3 months old mdx mice exercised for four months). […] B) Quantitative analysis of the spreading DiI-labeled tendon fibroblast cells was calculated by counting DiI-labeled cells in 200 μm×200 μm squares from three non-serial transverse sections for three mice per group.
3 month old mdx mice were exercised for 4 months and treated with 1 mg/Kg andrographolide or Vehicle. One week after the treatment, mice were anesthetized with an intramuscular injection of physiologic saline (10 ml kg^−1) containing ketamine (5 mg ml^−1) and xylazine (1 mg ml^−1) and then injected with approximately 5×10^5 tendon fibroblasts into the tibialis anterior muscle via a 0.20-mm diameter needle inserted along the cranio-caudal axis of the muscle as previously described (Gargioli et al., 2008). Fibroblasts were previously labeled with 2 mMDiI according to the protocol supplied by the manufacturer (Molecular Probes). One month after the injection, mice were sacrificed for morphological analyses.

For experiment [3], the system named is mdx mice. Description: Collagen and fibronectin in tibialis anterior muscle of mdx mice, immunofluorescence and western blot. The note with it: exercised mdx mice, 1 mg/kg i.p. 3 times per week for 3 months. The method, then: FIG. 5. Andrographolide reduced skeletal muscle fibrosis in mdx mice. To augment the extent of muscle fibrosis, 3 months old mdx mice were subjected to an exercise protocol for 3 months. Along this period one group was treated with 1 mg/kg andrographolide or vehicle (i.p. injections 3 time per week, 6 animal per group). A) Detection of collagen I and fibronectin by indirect immunofluorescence analysis in cryosections of tibialis anterior muscles from WT, Vehicle-treated mdx and andrographolide-treated mdx mice. Bar corresponds to 200 μm. B) fibronectin (FN) protein levels were detected by western blot analysis in extracts obtained from tibialis Anterior muscles from WT, Vehicle-treated mdx and andrographolide-treated mdx mice. […] GAPDH protein levels are shown as loading control; molecular weight markers are shown in kDa.
For immunoblot analyses, muscles were homogenized in 10 volume Tris-EDTA buffer with 1 mM PMSF as described previously (Morales et al., 2011). Briefly, proteins were determined in aliquots of muscle extracts using the bicinchoninic acid protein assay kit (Pierce, Ill.) using BSA as standard. Aliquots (50-100 μg) were subjected to SDS gel electrophoresis in 8% or 10% polyacrylamide gels, electrophoretically transferred onto PVDF membranes (Schleicher & Schuell) and probed with specific antibodies against fibronectin (Sigma-Aldrich, USA), collagen III (Rockland, USA and GAPDH (Millipore, USA), tubulin (Sigma-Aldrich, USA) and GAPDH (Sigma-Aldrich, USA). All immunoreactions were visualized by enhanced chemiluminescence kit (Pierce, USA). Densitometric analysis and quantification were performed using ImageJ software (NIH, USA) (Cabello-Verrugio et al., 2012).
Control or mdx (12 weeks old) male mice of C57BL/10 ScSn strain were studied. The animals were kept at room temperature with a […] night-day cycle and fed with pellets and water ad libitum. Experimental exercise was performed for running the mice in a treadmill for three times per week, 30 minutes each time at 12 m/min during 3 or 4 months (De Luca et al., 2005; De Luca et al., 2003). […]

As for `C=C1CC[C@@H]2[C@](C)(CO)[C@H](O)CC[C@@]2(C)[C@@H]1C/C=C1/C(=O)OC[C@H]1O` [andrographolide], the “percentage of grafted cells compared to the fibrotic untreated mice” value in the experiment with mdx mice [1] (15 days post transplantation, EGFP transgene qPCR) turned out to be 3 times. For the same compound, the “transplanted cells that die during the first 2 days” value with mdx mice [1] (EGFP satellite cells grafted in mdx mice, in both cases (treated and untreated)) came out at 60%. In addition, the “DiI-labeled cell distribution in muscle” value with mdx mice [2] is on record as “distributed more homogenously; also recorded: more homogenous”. In the experiment with mdx mice [3] (tibialis anterior), the “accumulation of collagen type I, immunofluorescence staining” value is on record as “strongly decrease” and the “accumulation of fibronectin, immunofluorescence staining” value was “strongly decrease”. The “fibronectin protein levels by western blot analysis” value with mdx mice [3] (tibialis anterior extracts) is “decreased”.

Source of the values: patent US20140271573A1, “PHARMACO-CELLULAR THERAPEUTIC METHOD FOR THE TREATMENT OF MUSCULAR DYSTROPHIES” (PONTIFICIA UNIVERSIDAD CATÓLICA DE CHILE, priority 2013, published 2014).
